Reference: the NIST ThermoML archive (doi:10.1021/acs.jced.8b00403)
± gives the expanded uncertainty stated by the source.

Test: wn = mass fraction of the nth substance listed
Settings: 101.33 kPa, Liquid; for viscosity: Concentric cylinders viscometry; for mass density: Vibrating tube method

CC(O)CO (configuration not stated) [1,2-propanediol] + O
Settings	mass density [kg/m3]	viscosity [mPa·s]
253.15 K, w1 = 0.5005	1062.5 ± 8	84.94 ± 25
253.15 K, w1 = 0.672	1070.8 ± 8	204.36 ± 61
253.15 K, w1 = 0.8044	1071.6 ± 8	415.71 ± 130
253.15 K, w1 = 0.9481	1068.2 ± 8	1067 ± 320
253.15 K, w1 = 1	1065.8 ± 8	1772.4 ± 540
258.15 K, w1 = 0.3312	1041.7 ± 8	21.95 ± 6.6
258.15 K, w1 = 0.5005	1059.8 ± 8	55.34 ± 17
258.15 K, w1 = 0.672	1067.6 ± 8	128.54 ± 39
258.15 K, w1 = 0.8044	1068.1 ± 8	256.2 ± 77
258.15 K, w1 = 0.9481	1064.7 ± 8	638.89 ± 190
258.15 K, w1 = 1	1062.2 ± 8	1038.3 ± 310
263.15 K, w1 = 0.3312	1040 ± 8	15.59 ± 4.7
263.15 K, w1 = 0.5005	1056.9 ± 8	37.52 ± 11
263.15 K, w1 = 0.672	1064.3 ± 8	84.22 ± 25
263.15 K, w1 = 0.8044	1064.5 ± 8	164.62 ± 49
263.15 K, w1 = 0.9481	1061 ± 8	396.61 ± 120
263.15 K, w1 = 1	1058.6 ± 8	631.08 ± 190
268.15 K, w1 = 0.198	1021.7 ± 8	5.78 ± 1.7
268.15 K, w1 = 0.3312	1038.15 ± 8	11.45 ± 3.4
268.15 K, w1 = 0.5005	1054 ± 8	26.37 ± 7.9
268.15 K, w1 = 0.672	1060.9 ± 8	57.22 ± 17
268.15 K, w1 = 0.8044	1061.1 ± 8	109.37 ± 33
268.15 K, w1 = 0.9481	1057.4 ± 8	254.76 ± 77
268.15 K, w1 = 1	1054.9 ± 8	396.99 ± 120
273.15 K, w1 = 0.0988	1009.8 ± 8	2.877 ± 0.86
273.15 K, w1 = 0.198	1020.8 ± 8	4.552 ± 1.4
273.15 K, w1 = 0.3312	1036.3 ± 8	8.655 ± 2.6
273.15 K, w1 = 0.5005	1051.1 ± 8	19.12 ± 5.7
273.15 K, w1 = 0.672	1057.5 ± 8	40.16 ± 12
273.15 K, w1 = 0.8044	1057.6 ± 8	75.05 ± 23
273.15 K, w1 = 0.9481	1053.8 ± 8	169.13 ± 51
273.15 K, w1 = 1	1051.3 ± 8	258 ± 78
283.15 K, w1 = 0.0988	1008.2 ± 8	1.991 ± 0.6
283.15 K, w1 = 0.198	1017.8 ± 8	3.017 ± 0.91
283.15 K, w1 = 0.3312	1031.2 ± 8	5.306 ± 1.6
283.15 K, w1 = 0.5005	1044.6 ± 8	10.83 ± 3.2
283.15 K, w1 = 0.672	1050.5 ± 8	21.24 ± 6.4
283.15 K, w1 = 0.8044	1050.4 ± 8	38.42 ± 12
283.15 K, w1 = 0.9481	1045.6 ± 8	86.69 ± 26
283.15 K, w1 = 1	1042.9 ± 8	116.68 ± 35
293.15 K, w1 = 0.0988	1005.7 ± 8	1.454 ± 0.44
293.15 K, w1 = 0.198	1014.5 ± 8	2.171 ± 0.65
293.15 K, w1 = 0.3312	1026.3 ± 8	3.536 ± 1.1
293.15 K, w1 = 0.5005	1038.1 ± 8	6.741 ± 2
293.15 K, w1 = 0.672	1043.2 ± 8	12.58 ± 3.8
293.15 K, w1 = 0.8044	1042.9 ± 8	21.75 ± 6.5
293.15 K, w1 = 0.9481	1038.2 ± 8	45.66 ± 14
293.15 K, w1 = 1	1035.5 ± 8	59.75 ± 18
303.15 K, w1 = 0.0988	1002.6 ± 8	1.148 ± 0.34
303.15 K, w1 = 0.198	1010.6 ± 8	1.599 ± 0.48
303.15 K, w1 = 0.3312	1021 ± 8	2.503 ± 0.75
303.15 K, w1 = 0.5005	1031.4 ± 8	4.51 ± 1.4
303.15 K, w1 = 0.672	1035.9 ± 8	8.01 ± 2.4
303.15 K, w1 = 0.8044	1035.4 ± 8	13.28 ± 4
303.15 K, w1 = 0.9481	1030.8 ± 8	26.09 ± 7.8
303.15 K, w1 = 1	1028.1 ± 8	33.26 ± 10
313.15 K, w1 = 0.0988	999 ± 8	0.9194 ± 0.28
313.15 K, w1 = 0.198	1006 ± 8	1.241 ± 0.37
313.15 K, w1 = 0.3312	1015.3 ± 8	1.858 ± 0.56
313.15 K, w1 = 0.5005	1024.5 ± 8	3.166 ± 0.95
313.15 K, w1 = 0.672	1028.4 ± 8	5.398 ± 1.6
313.15 K, w1 = 0.8044	1027.8 ± 8	8.638 ± 2.6
313.15 K, w1 = 0.9481	1023.2 ± 8	16 ± 4.8
313.15 K, w1 = 1	1020.6 ± 8	19.92 ± 6
323.15 K, w1 = 0.0988	994.4 ± 8	0.7541 ± 0.23
323.15 K, w1 = 0.198	1000.8 ± 8	0.9933 ± 0.3
323.15 K, w1 = 0.3312	1009.2 ± 8	1.436 ± 0.43
323.15 K, w1 = 0.5005	1017.4 ± 8	2.345 ± 0.7
323.15 K, w1 = 0.672	1020.8 ± 8	3.852 ± 1.2
323.15 K, w1 = 0.8044	1020.1 ± 8	5.938 ± 1.8
323.15 K, w1 = 0.9481	1015.6 ± 8	10.4 ± 3.1
323.15 K, w1 = 1	1013 ± 8	12.68 ± 3.8
333.15 K, w1 = 0.0988	989.3 ± 8	0.6304 ± 0.19
333.15 K, w1 = 0.198	995.4 ± 8	0.8167 ± 0.25
333.15 K, w1 = 0.3312	1002.7 ± 8	1.145 ± 0.34
333.15 K, w1 = 0.5005	1010 ± 8	1.802 ± 0.54
333.15 K, w1 = 0.672	1013 ± 8	2.852 ± 0.86
333.15 K, w1 = 0.8044	1012.2 ± 8	4.247 ± 1.3
333.15 K, w1 = 0.9481	1007.8 ± 8	7.094 ± 2.1
333.15 K, w1 = 1	1005.3 ± 8	8.498 ± 2.5
343.15 K, w1 = 0.0988	983.5 ± 8	0.5375 ± 0.16
343.15 K, w1 = 0.198	989.2 ± 8	0.6869 ± 0.21
343.15 K, w1 = 0.3312	996 ± 8	0.9408 ± 0.28
343.15 K, w1 = 0.5005	1002.3 ± 8	1.425 ± 0.43
343.15 K, w1 = 0.672	1004.9 ± 8	2.188 ± 0.66
343.15 K, w1 = 0.8044	1004.1 ± 8	3.161 ± 0.95
343.15 K, w1 = 0.9481	999.8 ± 8	5.053 ± 1.5
343.15 K, w1 = 1	997.7 ± 8	5.95 ± 1.8
353.15 K, w1 = 0.0988	977.2 ± 8	0.4666 ± 0.14
353.15 K, w1 = 0.198	982.5 ± 8	0.5856 ± 0.18
353.15 K, w1 = 0.3312	988.9 ± 8	0.7888 ± 0.24
353.15 K, w1 = 0.5005	994.6 ± 8	1.162 ± 0.35
353.15 K, w1 = 0.672	996.9 ± 8	1.733 ± 0.52
353.15 K, w1 = 0.8044	996 ± 8	2.433 ± 0.73
353.15 K, w1 = 0.9481	991.9 ± 8	3.734 ± 1.1
353.15 K, w1 = 1	989.5 ± 8	4.332 ± 1.3
